We go through three compounds from patent US4812465A, “Triazole derivatives for use as antimycotic agents” (CL Pharma Aktiengesellschaft, priority 1986, dated 1989).

Molecules are shown by their SMILES. ≈ marks a conversion by molar mass, not a printed value.

The test system of one data set is Absidia ramosa. The data set can be described thus: In vitro determination of minimum inhibitory concentration (MIC), serial dilution. The format is cell-based. The following applies: Lichtheimia ramosa, 336 h, pH 6, Absidia ramosa; pH 6.0, 22° C., 14 days. As for the experimental part:
(§1) The antimycotic activities of the compounds were measured by in vitro determination of the minimum inhibitory concentration (MIC) for yeasts, molds and dermatophytes.
(§2) 6 dermatophytes, 2 yeasts and 4 molds were used for testing with fungi, as follows:
(§3) The minimum inhibitory concentration (MIC) was determined in serial dilution tests in test tubes. The volume of the liquid nutrient medium in each test tube was 4.5 ml.
(§4) The substances were dissolved in DMSO and diluted with sterile distilled water to 10 concentrations (100, 50, 25, 12.5, 6.25, 3.12, 1.56, 0.78, 0.39 and 0.19 μg/ml). 0.5 ml of each of these dilution steps was added to liquid nutrient medium. Thus, a constant concentration of solvent in all the nutrient media was ensured, irrespective of the active compound concentration.
(§5) A comparison solution which contained only the solvent in appropriate concentration was included when carrying out each of the tests.
(§6) The individual strains were maintained on Sabouraud/beerwort agar slants and, before they were used in a test, they underwent a passage on a modified Sabouraud liquid nutrient medium. The strains were then harvested, washed and converted into a suspension of McFaerland 3 in the case of yeasts and molds and of McFaerland 4-5 in the case of dermatophytes.
(§7) The amount of material inoculated (inoculum) was 100 μl/test tube (inoculated densities: yeasts about 10^3 /ml, molds about 10^4 /ml, dermatophytes about 10^4 /ml). The pH of the liquid nutrient medium was 6.0. After inoculation had taken place the fungi were incubated at 22° C. for 14 days.
(§8) The MIC was then determined. The concentration step at which growth was no longer visible on macroscopic inspection was used for the determination of the MIC. The comparison substance used was 1-(2-(2,4-dichlorophenyl)-2-(2,4-dichlorophenylmethoxy)ethyl)-1H-imidazole(compound A).
The MIC is the smallest concentration in the dilution series that meets the test's criterion for growth inhibition. Take `Clc1ccc(OCCNC(Cn2cncn2)c2ccc(Cl)cc2Cl)cc1` (stereo not drawn) [Compound 14]: inhibition of growth (MIC) required 100 µg/mL (≈ 243 µM).
The same measure, in the same setting: to `Clc1ccc(SCCNC(Cn2cncn2)c2ccc(Cl)cc2Cl)cc1` (stereo not drawn) [Compound 33] belongs 25 µg/mL (≈ 58.4 µM).
Compound `Clc1ccc(SCCNC(Cn2ccnc2)c2ccc(Cl)cc2Cl)cc1` (stereo not drawn) [Compound 34] showed a minimal inhibitory concentration (MIC) of 6.25 µg/mL (≈ 14.6 µM).

In the next data set the test system is Candida albicans. The data set is described as above. Conditions: 336 h, pH 6, Candida albicans, pH 6.0, 22° C., 14 days, read-out: MIC C.alb. It counts as cell-based. As for the experimental part: as §1, §2, §3, §4, §5, §6, §7, §8
Regarding `Clc1ccc(OCCNC(Cn2cncn2)c2ccc(Cl)cc2Cl)cc1` (stereo not drawn) [Compound 14], the MIC came out at 12.5 µg/mL (≈ 30.4 µM).
Turning to `Clc1ccc(SCCNC(Cn2cncn2)c2ccc(Cl)cc2Cl)cc1` (stereo not drawn) [Compound 33], the MIC was found to be 12.5 µg/mL (≈ 29.2 µM).
As for `Clc1ccc(SCCNC(Cn2ccnc2)c2ccc(Cl)cc2Cl)cc1` (stereo not drawn) [Compound 34], the MIC amounted to 3.12 µg/mL (≈ 7.31 µM).

For a further data set, the system named is Microsporum gypseum. Described as above. The format is cell-based. The following applies: Nannizzia gypsea, 336 h, pH 6, Microsporum gypseum; pH 6.0, 22° C., 14 days; read-out: MIC Mi.gyp. On the procedure: as §1, §2, §3, §4, §5, §6, §7, §8
With `Clc1ccc(OCCNC(Cn2cncn2)c2ccc(Cl)cc2Cl)cc1` (stereo not drawn) [Compound 14], the MIC was determined as 6.25 µg/mL (≈ 15.2 µM).
Same read-out and setting: with `Clc1ccc(SCCNC(Cn2cncn2)c2ccc(Cl)cc2Cl)cc1` (stereo not drawn) [Compound 33] the figure was 6.25 µg/mL (≈ 14.6 µM); with `Clc1ccc(SCCNC(Cn2ccnc2)c2ccc(Cl)cc2Cl)cc1` (stereo not drawn) [Compound 34], 0.78 µg/mL (≈ 1.83 µM).

The test system of a further data set is Mucor mucedo plus. The data set is described as above. The format is cell-based. Conditions: Mucor mucedo, 336 h, pH 6, Mucor mucedo plus; pH 6.0, 22° C., 14 days. On the procedure:
as §1, §2, §3, §4, §5, §6, §7, §8
In the case of `Clc1ccc(OCCNC(Cn2cncn2)c2ccc(Cl)cc2Cl)cc1` (stereo not drawn) [Compound 14], the MIC stood at 12.5 µg/mL.
Still for that read-out and setting: with `Clc1ccc(SCCNC(Cn2cncn2)c2ccc(Cl)cc2Cl)cc1` (stereo not drawn) [Compound 33] the figure was 6.25 µg/mL; with `Clc1ccc(SCCNC(Cn2ccnc2)c2ccc(Cl)cc2Cl)cc1` (stereo not drawn) [Compound 34], 3.12 µg/mL.

A further data set has as its system Aspergillus fumigatus. The data set is described as above. The format is cell-based. The following applies: 20160 min, pH 6. As for the experimental part: as §1, §2, §3, §4, §5, §6, §7, §8
For `Clc1ccc(OCCNC(Cn2cncn2)c2ccc(Cl)cc2Cl)cc1` (stereo not drawn) [Compound 14], the “MIC Asp.fu.” value turned out to be 100 µg/mL (≈ 243 µM).
Same read-out and setting: to `Clc1ccc(SCCNC(Cn2cncn2)c2ccc(Cl)cc2Cl)cc1` (stereo not drawn) [Compound 33] belongs 25,0 μg/ml; to `Clc1ccc(SCCNC(Cn2ccnc2)c2ccc(Cl)cc2Cl)cc1` (stereo not drawn) [Compound 34], 6,25 μg/ml.

The test system of the next data set is Mucor mucedo minus. The description is as above. Conditions: Mucor mucedo, 336 h, pH 6, Mucor mucedo minus; pH 6.0, 22° C., 14 days. The format is cell-based. As for the experimental part: as §1, §2, §3, §4, §5, §6, §7, §8
For the compound `Clc1ccc(OCCNC(Cn2cncn2)c2ccc(Cl)cc2Cl)cc1` (stereo not drawn) [Compound 14], the MIC was determined as 6.25 µg/mL (≈ 15.2 µM).
Consider `Clc1ccc(SCCNC(Cn2cncn2)c2ccc(Cl)cc2Cl)cc1` (stereo not drawn) [Compound 33], for which the MIC turned out to be 3.12 µg/mL (≈ 7.29 µM).
Still for that read-out and setting: to `Clc1ccc(SCCNC(Cn2ccnc2)c2ccc(Cl)cc2Cl)cc1` (stereo not drawn) [Compound 34] belongs 3.12 µg/mL (≈ 7.31 µM).

For the next data set, the system named is Trichophyton rubrum. The description is as above. The format is cell-based. Conditions: 336 h, pH 6, Trichophyton rubrum, pH 6.0, 22° C., 14 days. On the procedure: as §1, §2, §3, §4, §5, §6, §7, §8
Compound `Clc1ccc(OCCNC(Cn2cncn2)c2ccc(Cl)cc2Cl)cc1` (stereo not drawn) [Compound 14] came in with an MIC of 6.25 µg/mL (≈ 15.2 µM).
As for `Clc1ccc(SCCNC(Cn2cncn2)c2ccc(Cl)cc2Cl)cc1` (stereo not drawn) [Compound 33], the MIC stood at 3.12 µg/mL (≈ 7.29 µM).
With `Clc1ccc(SCCNC(Cn2ccnc2)c2ccc(Cl)cc2Cl)cc1` (stereo not drawn) [Compound 34], the lowest concentration to inhibit growth (MIC) was 0.78 µg/mL (≈ 1.83 µM).

In a further data set the test system is Epidermophyton floccosum. The data set is described as above. It counts as cell-based. The following applies: 336 h, pH 6, Epidermophyton floccosum, pH 6.0, 22° C., 14 days. As for the experimental part:
as §1, §2, §3, §4, §5, §6, §7, §8
Consider `Clc1ccc(OCCNC(Cn2cncn2)c2ccc(Cl)cc2Cl)cc1` (stereo not drawn) [Compound 14], for which the MIC was determined as 3.12 µg/mL (≈ 7.58 µM).
On the same count and under the same terms, with `Clc1ccc(SCCNC(Cn2cncn2)c2ccc(Cl)cc2Cl)cc1` (stereo not drawn) [Compound 33] the figure was 3.12 µg/mL (≈ 7.29 µM); with `Clc1ccc(SCCNC(Cn2ccnc2)c2ccc(Cl)cc2Cl)cc1` (stereo not drawn) [Compound 34], 0.78 µg/mL (≈ 1.83 µM).

For another data set, the system named is Candida tropicalis. The data set is described as above. It counts as cell-based. Conditions: 336 h, pH 6, Candida tropicalis, pH 6.0, 22° C., 14 days, read-out: MIC C.trop. On the procedure: as §1, §2, §3, §4, §5, §6, §7, §8
As to `Clc1ccc(OCCNC(Cn2cncn2)c2ccc(Cl)cc2Cl)cc1` (stereo not drawn) [Compound 14], the MIC was 12.5 µg/mL (≈ 30.4 µM).
Turning to `Clc1ccc(SCCNC(Cn2cncn2)c2ccc(Cl)cc2Cl)cc1` (stereo not drawn) [Compound 33], the MIC was 6.25 µg/mL (≈ 14.6 µM).
On the same count and under the same terms, to `Clc1ccc(SCCNC(Cn2ccnc2)c2ccc(Cl)cc2Cl)cc1` (stereo not drawn) [Compound 34] belongs 3.12 µg/mL (≈ 7.31 µM).

For a further data set, the system named is Trichophyton verrucosum. Described as above. Conditions: 336 h, pH 6, Trichophyton verrucosum, pH 6.0, 22° C., 14 days. It counts as cell-based. On the procedure: as §1, §2, §3, §4, §5, §6, §7, §8
Take `Clc1ccc(OCCNC(Cn2cncn2)c2ccc(Cl)cc2Cl)cc1` (stereo not drawn) [Compound 14]: the MIC stood at 12.5 µg/mL (≈ 30.4 µM).
Consider `Clc1ccc(SCCNC(Cn2cncn2)c2ccc(Cl)cc2Cl)cc1` (stereo not drawn) [Compound 33], for which the MIC was 3.12 µg/mL (≈ 7.29 µM).
The compound `Clc1ccc(SCCNC(Cn2ccnc2)c2ccc(Cl)cc2Cl)cc1` (stereo not drawn) [Compound 34] gave an MIC of 0.78 µg/mL (≈ 1.83 µM).

A further data set deals with Trichophyton mentagrophytes. The data set is described as above. The format is cell-based. Conditions: 336 h, pH 6, Trichophyton mentagrophytes, pH 6.0, 22° C., 14 days. As for the experimental part:
as §1, §2, §3, §4, §5, §6, §7, §8
As for `Clc1ccc(OCCNC(Cn2cncn2)c2ccc(Cl)cc2Cl)cc1` (stereo not drawn) [Compound 14], the MIC stood at 12.5 µg/mL (≈ 30.4 µM).
The same measure, in the same setting: to `Clc1ccc(SCCNC(Cn2cncn2)c2ccc(Cl)cc2Cl)cc1` (stereo not drawn) [Compound 33] belongs 25 µg/mL (≈ 58.4 µM).
Still for that read-out and setting: with `Clc1ccc(SCCNC(Cn2ccnc2)c2ccc(Cl)cc2Cl)cc1` (stereo not drawn) [Compound 34] the figure was 0.78 µg/mL (≈ 1.83 µM).

Another data set has as its system Microsporum canis. The data set is described as above. It counts as cell-based. Conditions: 336 h, pH 6, Microsporum canis, pH 6.0, 22° C., 14 days. On the procedure:
as §1, §2, §3, §4, §5, §6, §7, §8
Take `Clc1ccc(OCCNC(Cn2cncn2)c2ccc(Cl)cc2Cl)cc1` (stereo not drawn) [Compound 14]: the MIC was 12.5 µg/mL (≈ 30.4 µM).
The compound `Clc1ccc(SCCNC(Cn2cncn2)c2ccc(Cl)cc2Cl)cc1` (stereo not drawn) [Compound 33] came in with an MIC of 6.25 µg/mL (≈ 14.6 µM).
On to `Clc1ccc(SCCNC(Cn2ccnc2)c2ccc(Cl)cc2Cl)cc1` (stereo not drawn) [Compound 34], for which the MIC was 0.78 µg/mL (≈ 1.83 µM).
